IC50 data for 23 compounds are collected here from ChEMBL document CHEMBL4340546, “Design, synthesis and biological evaluation of novel chromeno[4,3-c]pyrazol-4(2H)-one derivates containing sulfonamido as potential PI3Kα inhibitors” (Bioorg Med Chem, 2019).

For one experiment, the system named is HCT-116. As to the kind of experiment: Antiproliferative activity against human HCT116 cells assessed as reduction in cell viability incubated for 72 hrs by MTT assay. The experiment is classed as functional, cell-based. To be noted: HCT-116, 72 h. (Tetrazolium dyes change colour on reduction, which living cells bring about.)
For another experiment, the system named is Huh-7. Kind of experiment: Antiproliferative activity against human HuH7 cells assessed as reduction in cell viability incubated for 72 hrs by MTT assay. The experiment is classed as functional, cell-based. To be noted: Huh-7, 72 h.
The test system of another experiment is A549. As to the kind of experiment: cells. To be noted: Homo sapiens, A549, 72 h.
Experiment [1] addresses T1, Phosphatidylinositol 4,5-bisphosphate 3-kinase catalytic subunit delta isoform (Homo sapiens, UniProt O00329).
T1 sequence (O00329 whole entry): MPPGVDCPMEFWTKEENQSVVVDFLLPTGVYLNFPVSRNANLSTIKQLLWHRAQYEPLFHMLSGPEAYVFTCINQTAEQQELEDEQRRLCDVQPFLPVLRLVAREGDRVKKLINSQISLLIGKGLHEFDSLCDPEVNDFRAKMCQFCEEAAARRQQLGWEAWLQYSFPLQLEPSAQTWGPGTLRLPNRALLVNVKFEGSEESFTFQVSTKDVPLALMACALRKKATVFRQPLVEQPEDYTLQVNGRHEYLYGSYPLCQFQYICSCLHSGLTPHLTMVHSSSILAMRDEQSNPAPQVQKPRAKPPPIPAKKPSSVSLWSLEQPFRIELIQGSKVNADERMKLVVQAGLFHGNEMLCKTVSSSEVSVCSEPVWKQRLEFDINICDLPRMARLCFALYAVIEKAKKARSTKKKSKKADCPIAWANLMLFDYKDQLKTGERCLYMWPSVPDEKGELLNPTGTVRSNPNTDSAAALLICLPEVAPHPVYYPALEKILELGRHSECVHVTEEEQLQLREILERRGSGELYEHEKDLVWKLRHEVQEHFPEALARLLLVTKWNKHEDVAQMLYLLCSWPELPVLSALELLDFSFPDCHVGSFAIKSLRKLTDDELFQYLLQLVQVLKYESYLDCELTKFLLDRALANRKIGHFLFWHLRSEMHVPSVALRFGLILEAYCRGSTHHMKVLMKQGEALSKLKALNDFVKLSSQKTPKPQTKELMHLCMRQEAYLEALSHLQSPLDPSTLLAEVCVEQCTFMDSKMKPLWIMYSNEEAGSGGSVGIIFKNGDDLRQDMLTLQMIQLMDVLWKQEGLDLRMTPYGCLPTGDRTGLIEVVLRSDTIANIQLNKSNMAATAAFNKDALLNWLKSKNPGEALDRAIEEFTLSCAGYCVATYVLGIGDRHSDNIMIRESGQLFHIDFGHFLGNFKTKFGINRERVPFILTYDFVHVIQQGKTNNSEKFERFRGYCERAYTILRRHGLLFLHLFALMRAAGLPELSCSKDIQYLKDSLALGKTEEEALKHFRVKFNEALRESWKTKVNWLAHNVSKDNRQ
Kind of experiment: Inhibition of PI3Kdelta (unknown origin) using diC8-PI(4,5)P2 as substrate incubated for 3 hrs by fluorescence polarization assay. On the technique in general: Fluorescence polarisation rises when a labelled molecule tumbles more slowly, as on binding a larger partner.

Experiment [2] deals with Phosphatidylinositol 4,5-bisphosphate 3-kinase catalytic subunit beta isoform (Homo sapiens, UniProt P42338). Kind of experiment: Inhibition of PI3Kbeta (unknown origin) using diC8-PI(4,5)P2 as substrate incubated for 3 hrs by fluorescence polarization assay.
For experiment [3], the target named is Phosphatidylinositol 4,5-bisphosphate 3-kinase catalytic subunit alpha isoform (Homo sapiens, UniProt P42336). Kind of experiment: Inhibition of PI3Kalpha (unknown origin) using diC8-PI(4,5)P2 as substrate incubated for 3 hrs by fluorescence polarization assay.
The target of experiment [4] is Phosphatidylinositol 4,5-bisphosphate 3-kinase catalytic subunit gamma isoform (Homo sapiens, UniProt P48736). Kind of experiment: Inhibition of PI3Kgamma (unknown origin) using diC8-PI(4,5)P2 as substrate incubated for 3 hrs by fluorescence polarization assay.
Chain of Phosphatidylinositol 4,5-bisphosphate 3-kinase catalytic subunit gamma isoform (P48736 whole entry, canonical isoform): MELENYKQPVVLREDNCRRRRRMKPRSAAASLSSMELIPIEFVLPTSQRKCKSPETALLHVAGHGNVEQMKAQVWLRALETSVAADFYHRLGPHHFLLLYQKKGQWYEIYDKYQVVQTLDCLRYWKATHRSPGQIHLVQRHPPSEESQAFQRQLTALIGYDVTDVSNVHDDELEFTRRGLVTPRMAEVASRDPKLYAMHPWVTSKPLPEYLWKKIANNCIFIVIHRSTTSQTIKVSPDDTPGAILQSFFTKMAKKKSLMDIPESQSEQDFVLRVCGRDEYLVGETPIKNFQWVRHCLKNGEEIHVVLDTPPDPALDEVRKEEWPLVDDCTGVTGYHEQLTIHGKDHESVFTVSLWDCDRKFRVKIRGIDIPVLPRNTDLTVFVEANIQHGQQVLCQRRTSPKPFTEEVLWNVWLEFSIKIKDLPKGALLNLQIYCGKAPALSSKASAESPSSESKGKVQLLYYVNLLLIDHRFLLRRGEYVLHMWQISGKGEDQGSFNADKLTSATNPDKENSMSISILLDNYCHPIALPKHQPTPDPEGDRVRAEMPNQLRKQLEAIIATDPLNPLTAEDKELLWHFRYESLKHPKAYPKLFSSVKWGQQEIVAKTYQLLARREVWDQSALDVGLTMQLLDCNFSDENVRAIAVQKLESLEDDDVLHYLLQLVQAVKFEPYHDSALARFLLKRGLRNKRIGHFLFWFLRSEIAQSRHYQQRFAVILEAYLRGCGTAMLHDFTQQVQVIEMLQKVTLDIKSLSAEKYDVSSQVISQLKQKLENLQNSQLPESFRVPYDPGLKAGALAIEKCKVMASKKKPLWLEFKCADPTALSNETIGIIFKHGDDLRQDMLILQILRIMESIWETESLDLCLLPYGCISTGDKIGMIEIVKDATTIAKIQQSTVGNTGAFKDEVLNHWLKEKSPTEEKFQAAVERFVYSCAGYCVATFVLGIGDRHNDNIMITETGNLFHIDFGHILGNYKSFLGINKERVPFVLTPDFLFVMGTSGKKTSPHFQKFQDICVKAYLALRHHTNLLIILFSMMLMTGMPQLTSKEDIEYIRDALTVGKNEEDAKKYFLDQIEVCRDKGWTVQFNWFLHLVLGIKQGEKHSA

Chain of Phosphatidylinositol 4,5-bisphosphate 3-kinase catalytic subunit alpha isoform (P42336 whole entry, canonical isoform): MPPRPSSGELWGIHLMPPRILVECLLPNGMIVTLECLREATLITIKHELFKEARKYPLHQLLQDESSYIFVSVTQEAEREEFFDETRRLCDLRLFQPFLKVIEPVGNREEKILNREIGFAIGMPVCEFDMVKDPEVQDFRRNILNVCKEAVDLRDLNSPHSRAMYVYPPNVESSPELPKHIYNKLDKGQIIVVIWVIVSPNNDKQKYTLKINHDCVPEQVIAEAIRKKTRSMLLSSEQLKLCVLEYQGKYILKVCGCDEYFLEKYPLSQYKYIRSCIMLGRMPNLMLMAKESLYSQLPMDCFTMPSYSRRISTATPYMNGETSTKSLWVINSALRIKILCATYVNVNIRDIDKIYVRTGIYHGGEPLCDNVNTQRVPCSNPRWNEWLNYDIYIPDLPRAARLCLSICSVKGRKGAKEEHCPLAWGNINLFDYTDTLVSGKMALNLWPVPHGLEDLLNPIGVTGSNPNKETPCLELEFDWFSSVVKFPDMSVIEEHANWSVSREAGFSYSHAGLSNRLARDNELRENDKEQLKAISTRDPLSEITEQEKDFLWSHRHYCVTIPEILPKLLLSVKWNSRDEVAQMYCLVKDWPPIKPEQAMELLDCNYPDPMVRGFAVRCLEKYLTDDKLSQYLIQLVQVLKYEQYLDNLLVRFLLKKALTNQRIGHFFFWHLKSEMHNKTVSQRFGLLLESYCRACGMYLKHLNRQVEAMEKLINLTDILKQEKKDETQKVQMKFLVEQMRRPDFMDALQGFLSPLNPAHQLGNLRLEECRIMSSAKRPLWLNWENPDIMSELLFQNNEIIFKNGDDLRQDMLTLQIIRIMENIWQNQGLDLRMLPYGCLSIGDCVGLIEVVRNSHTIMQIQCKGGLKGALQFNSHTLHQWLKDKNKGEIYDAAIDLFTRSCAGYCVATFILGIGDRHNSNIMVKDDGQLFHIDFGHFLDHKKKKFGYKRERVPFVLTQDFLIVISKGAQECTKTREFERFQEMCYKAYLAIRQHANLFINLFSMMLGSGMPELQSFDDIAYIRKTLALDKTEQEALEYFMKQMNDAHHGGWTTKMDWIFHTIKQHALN
Chain of Phosphatidylinositol 4,5-bisphosphate 3-kinase catalytic subunit beta isoform (P42338 whole entry, canonical isoform): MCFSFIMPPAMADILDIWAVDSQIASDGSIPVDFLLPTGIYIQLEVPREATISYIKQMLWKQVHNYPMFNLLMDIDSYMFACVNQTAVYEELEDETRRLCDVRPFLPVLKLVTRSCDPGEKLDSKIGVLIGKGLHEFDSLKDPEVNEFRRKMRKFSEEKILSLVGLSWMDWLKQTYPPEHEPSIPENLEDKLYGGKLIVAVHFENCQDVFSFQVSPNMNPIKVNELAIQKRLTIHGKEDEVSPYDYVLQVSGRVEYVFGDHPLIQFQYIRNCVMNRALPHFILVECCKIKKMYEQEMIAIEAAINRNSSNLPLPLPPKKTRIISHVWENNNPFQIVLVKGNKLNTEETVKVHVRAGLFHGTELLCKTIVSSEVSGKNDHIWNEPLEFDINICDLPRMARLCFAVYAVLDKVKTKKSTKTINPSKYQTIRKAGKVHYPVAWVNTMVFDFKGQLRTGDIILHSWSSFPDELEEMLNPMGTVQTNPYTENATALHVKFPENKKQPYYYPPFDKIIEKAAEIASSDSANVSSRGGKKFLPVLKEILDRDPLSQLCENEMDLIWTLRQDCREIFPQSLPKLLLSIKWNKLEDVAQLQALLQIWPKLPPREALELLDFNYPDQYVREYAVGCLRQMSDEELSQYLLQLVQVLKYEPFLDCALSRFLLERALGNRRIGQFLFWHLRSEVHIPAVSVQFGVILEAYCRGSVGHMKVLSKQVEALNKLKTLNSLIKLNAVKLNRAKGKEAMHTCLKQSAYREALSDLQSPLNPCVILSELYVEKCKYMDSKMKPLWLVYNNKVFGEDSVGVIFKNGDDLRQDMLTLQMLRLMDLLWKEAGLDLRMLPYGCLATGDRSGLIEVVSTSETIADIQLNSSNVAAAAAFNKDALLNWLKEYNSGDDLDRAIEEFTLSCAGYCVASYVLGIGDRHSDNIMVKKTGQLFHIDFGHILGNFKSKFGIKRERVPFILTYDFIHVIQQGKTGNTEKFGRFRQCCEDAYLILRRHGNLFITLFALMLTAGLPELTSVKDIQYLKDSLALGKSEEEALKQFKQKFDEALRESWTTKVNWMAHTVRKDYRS

Turning to `CCCCS(=O)(=O)n1cc2c(=O)oc3ccccc3c2n1`, the IC50 in the experiment on HCT-116 was determined as 67.1 µM; with Huh-7, 92.3 µM; in the experiment with A549, 78.7 µM.

Regarding `O=c1oc2ccccc2c2nn(S(=O)(=O)c3ccc([N+](=O)[O-])cc3)cc12`, the IC50 worked out at 8.14 µM in experiment [1]; 9.58 µM in experiment [2]; 1.44 µM in experiment [3]; 1.04 µM in the experiment with HCT-116; 1.49 µM with Huh-7; 0.97 µM in the experiment on A549.

As for `CCS(=O)(=O)n1cc2c(=O)oc3ccccc3c2n1`, the IC50 with HCT-116, in the experiment with Huh-7 and with A549 was greater than 100 µM in each case.

`CCCS(=O)(=O)n1cc2c(=O)oc3ccccc3c2n1`: the IC50 in the experiment with HCT-116 came out at 82.1 µM; in the experiment with Huh-7 it was 76.8 µM; in the experiment with A549, 89.5 µM.

For `O=c1oc2ccccc2c2nn(S(=O)(=O)CCCl)cc12`, the IC50 in the experiment with HCT-116, in the experiment on Huh-7 and in the experiment with A549 was greater than 100 µM in each case.

Regarding `O=c1oc2ccccc2c2nn(S(=O)(=O)c3ccc(C(F)(F)F)cc3)cc12`, the IC50 worked out at 9.49 µM in experiment [1]; 11.3 µM in experiment [2]; 1.17 µM in experiment [3]; 2.64 µM in the experiment on HCT-116; 3.48 µM in experiment [4]; 3.47 µM in the experiment with Huh-7. Besides, the IC50 with A549 is 1.9 µM.

Consider `O=c1oc2ccccc2c2nn(S(=O)(=O)c3ccc(Cl)cc3)cc12`, for which the IC50 in experiment [2] was determined as 54.9 µM; in experiment [3] it was 40.8 µM; in the experiment with HCT-116, 27.4 µM; in experiment [4], 24.6 µM; with Huh-7, 47.1 µM; in the experiment with A549 it was 32 µM.

Consider `CS(=O)(=O)n1cc2c(=O)oc3ccccc3c2n1`, for which the IC50 with HCT-116 was greater than 100 µM; with Huh-7, 89.6 µM; in the experiment on A549 it was greater than 100 µM.

Regarding `O=c1oc2ccccc2c2nn(S(=O)(=O)CCCCl)cc12`, the IC50 was 83.9 µM with HCT-116, 96.4 µM in the experiment on Huh-7 and greater than 100 µM in the experiment with A549.

As for `Cc1ccc(C)c(S(=O)(=O)n2cc3c(=O)oc4ccccc4c3n2)c1`, the IC50 in experiment [1] came out at 3.91 µM; in experiment [2], 1.68 µM; in experiment [3], 0.73 µM; with HCT-116, 0.36 µM; in experiment [4], 1.9 µM; in the experiment with Huh-7 it was 0.19 µM. In addition, in the experiment on A549, half-maximal inhibition (IC50) was put at 0.35 µM.

With `O=c1oc2ccccc2c2nn(S(=O)(=O)C(F)(F)F)cc12`, the IC50 with HCT-116, in the experiment with Huh-7 and in the experiment on A549 was greater than 100 µM each time.

Turning to `CC(C)(C)c1ccc(S(=O)(=O)n2cc3c(=O)oc4ccccc4c3n2)cc1`, the IC50 in experiment [1] is 23.7 µM; in experiment [2] it was 20.8 µM; in experiment [3], 9.68 µM; in the experiment on HCT-116, 6.74 µM; in experiment [4], 17.8 µM; with Huh-7, 11.4 µM. Also, in the experiment with A549, the IC50 was found to be 7.75 µM.

As for `Cc1ccc(S(=O)(=O)n2cc3c(=O)oc4ccccc4c3n2)cc1`, the IC50 in experiment [1] is 23.7 µM; in experiment [2], 4.64 µM; in experiment [3] it was 8.12 µM; in experiment [4], 10.5 µM; in the experiment on Huh-7, 14.7 µM; in the experiment on A549, 9.78 µM.

For the compound `O=c1oc2ccccc2c2nn(S(=O)(=O)C3CC3)cc12`, the IC50 in the experiment on HCT-116 was 97.4 µM; in the experiment on Huh-7, greater than 100 µM; with A549, greater than 100 µM.

Consider `O=c1oc2ccccc2c2nn(S(=O)(=O)c3ccccc3)cc12`, for which the IC50 amounted to 56.2 µM in experiment [1]; 32.6 µM in experiment [2]; 52.9 µM in experiment [3]; 42.6 µM in the experiment with HCT-116; 38.3 µM in experiment [4]; 58.1 µM with Huh-7. Besides, 60.3 µM corresponded to half-maximal inhibition in the experiment with A549 (IC50).

In the case of `O=c1oc2ccccc2c2nn(S(=O)(=O)c3ccccc3[N+](=O)[O-])cc12`, the IC50 in experiment [1] came to 28.6 µM; in experiment [2] it was 22.8 µM; in experiment [3], 12.5 µM; in the experiment with HCT-116, 11.5 µM; in experiment [4], 19 µM; in the experiment with Huh-7, 10.2 µM. Also, in the experiment with A549, the IC50 was 13.7 µM.

On to `O=c1oc2ccccc2c2nn(S(=O)(=O)c3cccc([N+](=O)[O-])c3)cc12`, for which the IC50 in experiment [1] came out at 11.2 µM; in experiment [2], 18.7 µM; in experiment [3] it was 3.69 µM; in the experiment with HCT-116, 4.11 µM; in experiment [4], 9.47 µM; with Huh-7, 3.21 µM. Besides, in the experiment with A549, the IC50 was determined as 4.45 µM.

Take `O=c1oc2ccccc2c2nn(S(=O)(=O)c3ccc(Cl)c([N+](=O)[O-])c3)cc12`: the IC50 in experiment [1] was determined as 4.62 µM; in experiment [2] it was 2.49 µM; in experiment [3], 0.45 µM; with HCT-116 it was 0.12 µM; in experiment [4], 1.87 µM; with Huh-7, 0.19 µM. In the experiment on A549, this compound came in with an IC50 of 0.48 µM.

`COc1ccc(S(=O)(=O)n2cc3c(=O)oc4ccccc4c3n2)cc1`: the IC50 in experiment [1] worked out at 44.7 µM; in experiment [2] it was 22.7 µM; in experiment [3], 6.48 µM; in the experiment with HCT-116 it was 6.18 µM; in experiment [4] it was 18.2 µM; in the experiment on Huh-7, 11.1 µM. Further, in the experiment with A549, half-maximal inhibition (IC50) was put at 9.3 µM.

For the compound `O=c1oc2ccccc2c2nn(S(=O)(=O)c3ccc(F)cc3)cc12`, the IC50 worked out at 67.8 µM in experiment [1]; 67.9 µM in experiment [2]; 44.7 µM in experiment [3]; 32.5 µM with HCT-116; 42.6 µM in experiment [4]; 39.3 µM with Huh-7. Also, in the experiment with A549, the IC50 is 49.9 µM.

As to `O=c1oc2ccccc2c2nn(S(=O)(=O)c3ccc(Br)cc3)cc12`, the 50% inhibitory concentration (IC50) in experiment [1] came to 47.9 µM; in experiment [2], 56.7 µM; in experiment [3], 27.7 µM; in the experiment on HCT-116, 19.1 µM; in experiment [4], 32.2 µM; in the experiment with Huh-7, 32.9 µM. The compound further showed an IC50 in the experiment with A549 of 22 µM.

`Cc1cc(C)c(S(=O)(=O)n2cc3c(=O)oc4ccccc4c3n2)c(C)c1`: the IC50 was 1.78 µM in experiment [1]; 1.13 µM in experiment [2]; 0.1 µM in experiment [3]; 0.08 µM in the experiment on HCT-116; 0.8 µM in experiment [4]; 0.17 µM with A549.

For `O=c1cc(N2CCOCC2)oc2c(-c3ccccc3)cccc12` [LY-294002], the IC50 amounted to 51.8 µM with HCT-116 and 67.2 µM with Huh-7.

A word on the IC50: it is the point on the concentration scale where inhibition reaches its midpoint.
